Values joined by “and” are separate entries in the source; they are usually repeats but may differ in a detail not shown here. Equal entries are not always repeated. Marks after values point to notes of the source that are not given here.
How the values were obtained:
[1] = test system: neuraminidase (NA) of B/Victoria-lineage viruses; format: biochemical, influenza B/Victoria-lineage virus
[2] = test system: neuraminidase (NA) of A(H1N1)pdm09 viruses; format: biochemical, influenza A(H1N1)pdm09 virus
[3] = test system: neuraminidase (NA) of A(H3N2) viruses; format: biochemical, influenza A(H3N2) virus
A(H3N2) viruses [4] = format: cell-based, influenza A(H3N2) virus
A(H1N1)pdm09 viruses = format: cell-based, influenza A(H1N1)pdm09 virus
A(H3N2) viruses [5] = format: cell-based, influenza A(H3N2) virus; remark: listed apart in the source

## CCC(CC)[C@H](NC(C)=O)[C@@H]1[C@H](O)[C@@H](C(=O)O)C[C@H]1N=C(N)N [Peramivir, peramivir]
[1]
  Fold-change in IC50: 158 fold
  IC50 fold-change compared to reference median IC50 values: 158 fold
  NAI inhibition phenotype (NI/RI/HRI): HRI (key: normal inhibition (NI) is a <5-fold increase in the NAI IC50; RI is a 5- to 50-fold increase; HRI is a >50-fold increase)
[2]
  NAI inhibition phenotype (NI/RI/HRI): HRI (key: normal inhibition (NI) is a <10-fold increase in the NAI IC50; RI is a 10- to 100-fold increase; HRI is a >100-fold increase)

## CCOC(=O)C1=C[C@@H](OC(CC)CC)[C@H](NC(C)=O)[C@@H](N)C1 [Oseltamivir, oseltamivir]
[3]
  Fold-change in IC50: 1.86 fold
  IC50 fold-change compared to reference median IC50 values: 1.86 fold

## CC(=O)N[C@H]1[C@H]([C@H](O)[C@H](O)CO)OC(C(=O)O)=C[C@@H]1N=C(N)N [Zanamivir, zanamivir]
[1]
  IC50 fold-change (borderline RI): 5.76- to 6.25 fold
[3]
  Fold-change in IC50: 10.16 fold
  IC50 fold-change compared to reference median IC50 values: 10.16 fold
  NAI inhibition phenotype (NI/RI/HRI): RI (key: normal inhibition (NI) is a <10-fold increase in the NAI IC50; RI is a 10- to 100-fold increase; HRI is a >100-fold increase)

## COC(=O)OCOc1c2n(ccc1=O)N([C@@H]1c3ccccc3SCc3c1ccc(F)c3F)[C@@H]1COCCN1C2=O [Baloxavir, baloxavir marboxil]
A(H3N2) viruses [4]
  IRINA fold-change compared to PA-sequence matched virus: 4.8 fold
A(H1N1)pdm09 viruses
  EC50 fold-change compared to reference median EC50 values: 2.72 fold and 2.72 ^e fold
  Fold change in EC50: 2.72^d fold
  baloxavir susceptibility phenotype: RS (key: RS to baloxavir is provisionally defined as >3-fold change in EC50 of a test virus compared to the subtype/lineage-specific median EC50 values)
A(H3N2) viruses [5]
  HINT fold-change compared to PA-sequence matched virus: 4.4 fold

## [H]/N=C(\N)N[C@H]1C=C(C(=O)O)O[C@@H]([C@H](OC)[C@H](O)CO)[C@@H]1NC(C)=O [Laninamivir, laninamivir]
[1]
  Fold-change in IC50: 0.91 fold
  IC50 fold-change compared to reference median IC50 values: 0.91 fold
